Measured values from the C3SDB collision cross section collection.
“And” between values parts separate entries of the source, which are not always exact repeats. Equal entries are not always repeated.

Assays:
[1] = instrument: TW, calibrated with phosphatidylcholines (ESI+) and phosphatidylethanolamines (ESI-)
[2] = instrument: DT, single field, calibrated with Agilent tune mix (Agilent)
[3] = [M-H]-; instrument: DT; stepped-field
[4] = instrument: TW, calibrated with phosphatidylcholines (ESI+) and phosphatidylethanolamines (ESI-); remark: listed apart in the source
[5] = instrument: TW, calibrated with polyalanine

## CCCCCCCC/C=C\CCCCCCCCCC(=O)O[C@H](COC(=O)CCCCCCCCCCC)COP(=O)(O)OC[C@@H](O)CO [PG(32:1)]
[1]; [M-H]-
  collision cross section (N2): 263.3 Å²
[2]; [M-H]-
  collision cross section (N2): 263.3 Å²
[3]
  collision cross section (N2): 270.4 Å²
[4]; [M+Na]+
  collision cross section (N2): 274.1 Å²
[4]; [M-H]-
  collision cross section (N2): 262.5 Å²

## CCCCCCCCCC/C=C\CCCCCCCCCC(=O)O[C@H](COC(=O)CCCCCCCCCCC)COP(=O)(O)O [PA(16:0/18:1)]
[1]; [M-H]-
  collision cross section (N2): 256.3 Å²
[3]
  collision cross section (N2): 259.2 Å²

## Cc1cc(O)cc2oc(=O)c3c(O)cc(O)cc3c12 [Alternariol]
[5]; [M-H]-
  collision cross section (N2): 146 Å²

## C=CC(C)(C)[C@@]12C=C(O)C(=O)N3/C(=C/c4cnc[nH]4)C(=O)N[C@]31N(OC)c1ccccc12 [Meleagrin]
[5]; [M+H]+
  collision cross section (N2): 201 Å²

## COc1c(C)c2c(c(O)c1C/C=C(\C)CCC(=O)O)C(=O)OC2 [Mycophenolic acid]
[5]; [M+NH4]+
  collision cross section (N2): 176 Å²

## CCCCCC/C=C\CCCCCCCCCC(=O)OCC(COP(=O)([O-])OCC(O)COC(=O)C(N)CCCC[NH3+])OC(=O)CCCCCCCCC/C=C\CCCCCC (stereo not drawn) [LysPG(36:2)]
[1]; [M+H]+
  collision cross section (N2): 302.8 Å²

## CC(C)[C@H]1OC(=O)[C@H](Cc2ccccc2)N(C)C(=O)[C@@H](C(C)C)OC(=O)[C@H](Cc2ccccc2)N(C)C(=O)[C@@H](C(C)C)OC(=O)[C@H](Cc2ccccc2)N(C)C1=O [Beauvericin]
[5]; [M+H]+
  collision cross section (N2): 283.8 Å²
[5]; [M+K]+
  collision cross section (N2): 290.3 Å²
[5]; [M+NH4]+
  collision cross section (N2): 269 Å²
[5]; [M+Na]+
  collision cross section (N2): 287.4 Å²

## O=C1C=C2C(=CCOC2O)O1 (stereo not drawn) [Patulin]
[5]; [M+H3C2O2]-
  collision cross section (N2): 142 Å²

## CCCC/C=C\C/C=C\CCCCCCCC(=O)O[C@H](CO/C=C\CCCCCCCCCCCCCC)COP(=O)(O)OC[C@@H](O)CO [PG(p33:2)]
[1]; [M-H]-
  collision cross section (N2): 263.4 Å²

## CCCCCCCCCCCCCCCCCC(=O)OC(COC(=O)CCCCCCCCCCCCCC)COP(=O)([O-])OCC(O)COC(=O)C(N)CCCC[NH3+] (stereo not drawn) [LysPG(33:0)]
[1]; [M+H]+
  collision cross section (N2): 299.8 Å²

## C=C(C)C(=O)/C(=C/C(=O)O)OC [Penicillic acid]
[5]; [M+H]+
  collision cross section (N2): 131 Å²

## CCCC[C@@H](C)[C@@H](OC(=O)CC(CC(=O)O)C(=O)O)[C@H](C[C@@H](C)C[C@H](O)CCCCCC[C@@H](O)[C@H](C)N)OC(=O)CC(CC(=O)O)C(=O)O (stereo partly drawn) [Fumonisin B3]
[5]; [M+H]+
  collision cross section (N2): 258 Å²
[5]; [M+K]+
  collision cross section (N2): 264.5 Å²
[5]; [M+Na]+
  collision cross section (N2): 259.2 Å²

## CC/C=C\C/C=C\C/C=C\CCCCCCCC(=O)OC[C@H](CO[C@@H]1O[C@H](CO)[C@H](O)C(O)C1O)OC(=O)CCCCC/C=C\C/C=C\C/C=C\CC (stereo partly drawn) [MGDG(16:3/18:3)]
[1]; [M+CH3COO]-
  collision cross section (N2): 280.3 Å²
[1]; [M+Cl]-
  collision cross section (N2): 273.7 Å²
[1]; [M+K]+
  collision cross section (N2): 273.6 Å²
[1]; [M+Na]+
  collision cross section (N2): 273.1 Å²
[1]; [M-H]-
  collision cross section (N2): 269.9 Å²

## CCCCCCCCCCCCC=CCC(=O)OC[C@H](CO[C@@H]1O[C@H](CO[C@H]2O[C@H](CO)[C@H](O)C(O)C2O)[C@H](O)C(O)C1O)OC(=O)CC=CCCCCCCCCCCCC (stereo partly drawn) [DGDG(32:2)]
[1]; [M+NH4]+
  collision cross section (N2): 302.2 Å²
[1]; [M+Na]+
  collision cross section (N2): 298 Å²

## CC[C@H](C)[C@H]1C(=O)O[C@H](C(C)C)C(=O)N(C)[C@@H]([C@@H](C)CC)C(=O)O[C@H](C(C)C)C(=O)N(C)[C@@H](C(C)C)C(=O)O[C@H](C(C)C)C(=O)N1C [Enniatin A1]
[5]; [M+H]+
  collision cross section (N2): 252.2 Å²
[5]; [M+K]+
  collision cross section (N2): 257.9 Å²
[5]; [M+NH4]+
  collision cross section (N2): 259 Å²
[5]; [M+Na]+
  collision cross section (N2): 258 Å²

## CCCCCCCCCCCCCCCCCCCCC(=O)OC(COC(=O)CCCCCCCCCCCCCC)COP(=O)([O-])OCC(O)COC(=O)C(N)CCCC[NH3+] (stereo not drawn) [LysPG(36:0)]
[1]; [M+H]+
  collision cross section (N2): 308.7 Å²

## CCCC/C=C\CCCCCCCC(=O)OC[C@H](COP(=O)(O)OC[C@@H](O)CO)OC(=O)CCCCCCCCC/C=C\CCCCCCCCCC [PG(36:2)]
[1]; [M-H]-
  collision cross section (N2): 274.9 Å²
[2]; [M+H]+
  collision cross section (N2): 288.9 Å²
[2]; [M+Na]+
  collision cross section (N2): 286 Å²
[3]
  collision cross section (N2): 282.3 Å² and 281.9 Å²
[4]; [M+Na]+
  collision cross section (N2): 284.7 Å²
[4]; [M-H]-
  collision cross section (N2): 274.3 Å²

## CCCCCC/C=C/CCCCCCCCCC(=O)OCC(COP(=O)([O-])OCC(O)COC(=O)C(N)CCCC[NH3+])OC(=O)CCCCCCCCCCCCCCC (stereo not drawn) [LysPG(34:1)]
[1]; [M+H]+
  collision cross section (N2): 299.6 Å²

## CCCCCCCCCCCCCCCCCCCCC(=O)OC[C@H](COP(=O)(O)OC[C@@H](O)CO)OC(=O)CCCCCCCCCCCCCC [PG(36:0)]
[1]; [M-H]-
  collision cross section (N2): 277.9 Å²

## COc1cc2c(c3oc(=O)c4c(c13)CCC4=O)[C@@H]1CCO[C@@H]1O2 [Aflatoxin B2]
[5]; [M+H]+
  collision cross section (N2): 162 Å²
[5]; [M+K]+
  collision cross section (N2): 181.4 Å²
[5]; [M+Na]+
  collision cross section (N2): 176.8 Å²

## CCCC/C=C\CCCCCCCC(=O)O[C@H](CO/C=C\CCCCCCCCCCCCCC)COP(=O)(O)OC[C@@H](O)CO [PG(p30:1)]
[1]; [M-H]-
  collision cross section (N2): 255.3 Å²

## CCCC/C=C\CCCCCCCC(=O)O[C@H](CO/C=C\CCCCCCCCCCCCCCCC)COP(=O)(O)OC[C@@H](O)CO [PG(p32:1)]
[1]; [M-H]-
  collision cross section (N2): 262.1 Å²

## CCCCCCCCCCCCCCCCCCCC(=O)OC[C@H](COP(=O)(O)OC[C@@H](O)CO)OC(=O)CCCCCCCCCCCCC [PG(34:0)]
[1]; [M-H]-
  collision cross section (N2): 270.8 Å²
[3]
  collision cross section (N2): 277.6 Å²
[4]; [M+Na]+
  collision cross section (N2): 282.2 Å²
[4]; [M-H]-
  collision cross section (N2): 269 Å²

## CCCCCCCCCCCCCCCCC(=O)OC[C@H](CO[C@@H]1O[C@H](CO[C@H]2O[C@H](CO)[C@H](O)C(O)C2O)[C@H](O)C(O)C1O)OC(=O)CCCCCCCCCCCCCCCC (stereo partly drawn) [DGDG(34:0)]
[1]; [M+NH4]+
  collision cross section (N2): 314.2 Å²
[1]; [M+Na]+
  collision cross section (N2): 311.8 Å²

## CC[C@H](C)[C@H]1C(=O)O[C@H](C(C)C)C(=O)N(C)[C@@H]([C@@H](C)CC)C(=O)O[C@H](C(C)C)C(=O)N(C)[C@@H]([C@@H](C)CC)C(=O)O[C@H](C(C)C)C(=O)N1C [Enniatin A]
[5]; [M+H]+
  collision cross section (N2): 257.9 Å²
[5]; [M+K]+
  collision cross section (N2): 264.7 Å²
[5]; [M+NH4]+
  collision cross section (N2): 264 Å²
[5]; [M+Na]+
  collision cross section (N2): 262.4 Å²

## CCCCCC/C=C\CCCCCCCCCC(=O)OCC(COP(=O)([O-])OCC(O)COC(=O)C(N)CCCC[NH3+])OC(=O)CCCCCCCC/C=C\CCCCCC (stereo not drawn) [LysPG(35:2)]
[1]; [M+H]+
  collision cross section (N2): 300.8 Å²

## C[C@H]1CCC[C@H](O)CCC/C=C/c2cc(O)cc(O)c2C(=O)O1 [alpha-zearalenol]
[5]; [M-H]-
  collision cross section (N2): 173 Å²

## CCCC[C@@H](C)[C@@H](OC(=O)C[C@@H](CC(=O)O)C(=O)O)[C@H](C[C@@H](C)CCCCCCCC[C@H](O)[C@H](C)N)OC(=O)C[C@@H](CC(=O)O)C(=O)O [Fumonisin B4]
[5]; [M+H]+
  collision cross section (N2): 255 Å²
[5]; [M+K]+
  collision cross section (N2): 264.6 Å²
[5]; [M+Na]+
  collision cross section (N2): 260.4 Å²

## CCCCCCCCCC/C=C\CCCCCCCCCC(=O)O[C@H](COC(=O)CCCCCCCCCCC)COP(=O)(O)OC[C@@H](O)CO [PG(34:1)]
[1]; [M-H]-
  collision cross section (N2): 269.9 Å²
[2]; [M+H]+
  collision cross section (N2): 286.8 Å²
[2]; [M+NH4]+
  collision cross section (N2): 287.3 Å²
[2]; [M-H]-
  collision cross section (N2): 270.2 Å²
[4]; [M+Na]+
  collision cross section (N2): 281.1 Å²
[4]; [M-H]-
  collision cross section (N2): 268.9 Å²

## CCCC[C@@H](C)[C@@H](OC(=O)C[C@@H](CC(=O)O)C(=O)O)[C@H](C[C@@H](C)C[C@H](O)CCCC[C@@H](O)C[C@H](O)[C@H](C)N)OC(=O)C[C@@H](CC(=O)O)C(=O)O [Fumonisin B1]
[5]; [M+H]+
  collision cross section (N2): 258 Å²
[5]; [M+K]+
  collision cross section (N2): 269 Å²
[5]; [M+Na]+
  collision cross section (N2): 264.4 Å²

## CCCCCCCCCCCCCCC(=O)OC[C@H](CO[C@@H]1O[C@H](CO[C@H]2O[C@H](CO)[C@H](O)C(O)C2O)[C@H](O)C(O)C1O)OC(=O)CCCCCCCCCCCCCC (stereo partly drawn) [DGDG(30:0)]
[1]; [M+NH4]+
  collision cross section (N2): 302.4 Å²
[1]; [M+Na]+
  collision cross section (N2): 299.6 Å²
